Results as given in patent US12655158B2, “Biomimetic G-quartet compounds” (CENTRE NATIONAL DE LA RECHERCHE SCIENTIFIQUE, priority 2020, dated 2026).

Tested on: doubly labelled quadruplex F21T (F-21-T, FAM-d[GGGTTAGGGTTAGGGTTAGGG]-TAMRA)
Experiment: FRET-melting assay with F21T quadruplex
Format: binding
Details: F21T 0.2 μM, Caco.K buffer, 5 molar equivalents of TASQ; means of 3 experiments
Procedure: The lyophilized DNA strands (purchased from Eurogentec, Seraing, Belgium) were firstly diluted at 500 μM in deionized water (18.2 MΩ·cm resistivity). The DNA batch was prepared in a Caco.K buffer, comprised of 10 mM lithium cacodylate buffer (pH 7.2) plus 10 mM KCl/90 mM LiCl.
The quadruplex structure was prepared by mixing 40 μL of the constitutive strand (500 μM) with 8 μL of a lithium cacodylate buffer solution (100 mM, pH 7.2), plus 8 μL of a KCl/LiCl solution (100 mM/900 mM) and 24 μL of water. The final DNA concentration was theoretically 250 μM. The actual concentration of the DNA was determined through a dilution to 1 μM theoretical concentration through UV spectral analysis at 260 nm (after 5 min at 90° C.) with the following molar extinction coefficient values: 268300 M^−1·cm^−1 (F21 T). The higher-order DNA structure was folded as follows: solutions were heated (90° C., 5 min), cooled on ice (7 h) and then stored at least overnight (4° C.). […] Final data were analyzed with Excel (Microsoft Corp.) and OriginPro® 9.1 (OriginLab Corp.). […]
The apparent affinity of each G4-ligands is quantified via fluorescence resonance energy transfer (FRET)-melting experiments. […]

Row | Structure (SMILES) | Thermal stabilization ΔT1/2 [°C]
1 | NCCN(CC(=O)NCCNC(=O)CN1CCN(CC(=O)NCCNC(=O)CN(CCN)C(=O)Cn2cnc3c(=O)[nH]c(N)nc32)CCN(CC(=O)NCCNC(=O)CN(CCN)C(=O)Cn2cnc3c(=O)[nH]c(N)nc32)C(CNC(=O)CCCC[C@H]2SCC3NC(=O)NC32)CN(CC(=O)NCCNC(=O)CN(CCN)C(=O)Cn2cnc3c(=O)[nH]c(N)nc32)CC1)C(=O)Cn1cnc2c(=O)[nH]c(N)nc21 (some centres unmarked) [BioTASQ] | 2.2
2 | NCCN(CC(=O)NCCNC(=O)CN1CCN(CC(=O)NCCNC(=O)CN(CCN)C(=O)Cn2cnc3c(=O)[nH]c(N)nc32)CCN(CC(=O)NCCNC(=O)CN(CCN)C(=O)Cn2cnc3c(=O)[nH]c(N)nc32)CCN(CC(=O)NCCNC(=O)CN(CCN)C(=O)Cn2cnc3c(=O)[nH]c(N)nc32)CC1)C(=O)Cn1cnc2c(=O)[nH]c(N)nc21 [^PNADOTASQ] | 9.1
